Consider 61 compounds from PubChem BioAssay AID1195 (EPA DSSTox, 2008).

In this data set the test system is human maximum recommended daily dose, FDA database. In words: DSSTox (FDAMDD) FDA Maximum (Recommended) Daily Dose Database. The note with it: active compounds read low. The essentials: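 MRDD values come from clinical trials with daily oral dosing, usually for 3–12 months, for the average adult, in mg/day converted to mg/kg-bw/day assuming 60 kg. Antineoplastic mg/m2 doses are divided by 37. Activity score maps log10(1/MRDD mmol) onto 1–100.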

Setting [1] is: TherapeuticCategory: antidiabetic.
The mark [2] stands for this setting: TherapeuticCategory: antineoplastic.
Where [3] appears, read: TherapeuticCategory: antidepressant.
Setting [4] is: TherapeuticCategory: anti inflammatory.
[5] abbreviates: TherapeuticCategory: antibacterial.
Where [6] appears, read: TherapeuticCategory: diagnostic aid.
The mark [7] stands for this setting: TherapeuticCategory: antihypertensive.
Where [8] appears, read: TherapeuticCategory: antihistaminic.

On to `OCCN1C[C@H](O)[C@@H](O)[C@H](O)[C@H]1CO`, for which, under setting [1], the maximum recommended daily dose (mmol/kg-bw/day) was 0.0241. For `NS(=O)(=O)c1cc2c(cc1Cl)NC(CSCc1ccccc1)=NS2(=O)=O`, the maximum recommended daily dose (mmol/kg-bw/day) (TherapeuticCategory: diuretic, antihypertensive) is 0.00771. `NC(N)=NCCCC(N)C(=O)O` (stereo unspecified): the maximum recommended daily dose (mmol/kg-bw/day) (TherapeuticCategory: ammonia detoxicant, diagnostic aid) was 2.87.

Consider `COc1cccc2c1C(=O)c1c(O)c3c(c(O)c1C2=O)C[C@@](O)(C(=O)CO)C[C@@H]3O[C@H]1C[C@H](N)[C@H](O)[C@H](C)O1`, for which, under setting [2], the maximum recommended daily dose (mmol/kg-bw/day) is 0.00447. Consider `CCN1CCCC1CNC(=O)c1cc(S(=O)(=O)CC)ccc1OC` (stereo unspecified), for which, under setting [3], the maximum recommended daily dose (mmol/kg-bw/day) was 0.0564. With `C[C@@H]1C[C@H]2[C@@H]3C[C@H](F)C4=CC(=O)C=C[C@]4(C)[C@H]3[C@@H](O)C[C@]2(C)[C@@]1(O)C(=O)CO`, where the note is “TherapeuticCategory: glucocorticoid”, the maximum recommended daily dose (mmol/kg-bw/day) is 0.00102. Turning to `CCN(CC)CCc1nc(-c2ccccc2)no1`, under setting [4], the maximum recommended daily dose (mmol/kg-bw/day) was 0.0136.

On to `NC(=O)c1ccccc1O`, for which the maximum recommended daily dose (mmol/kg-bw/day) (TherapeuticCategory: analgesic) is 0.316. For `CCOc1cc(CC(=O)N[C@@H](CC(C)C)c2ccccc2N2CCCCC2)ccc1C(=O)O`, the maximum recommended daily dose (mmol/kg-bw/day) under setting [1] was 0.00059.

Take `CN(CC(=O)N1CCOCC1)Cc1c(Cl)cccc1NC(=O)c1ccccc1`: for the setting “TherapeuticCategory: antitussive, respiratory stimulant”, the maximum recommended daily dose (mmol/kg-bw/day) was 0.0199. Consider `CN(C)[C@@H]1C(=O)C(C(N)=O)=C(O)[C@@]2(O)C(=O)C3=C(O)c4c(O)cccc4[C@@](C)(O)[C@H]3[C@H](O)[C@@H]12`, for which, under setting [5], the maximum recommended daily dose (mmol/kg-bw/day) was 0.0671. Regarding `CC1(C)C(\C=C/C=C\C=C/C=C2/N(CCCCS(=O)(=O)O)c3ccc4ccccc4c3C2(C)C)=[N+](CCCCS(=O)(=O)[O-])c2ccc3ccccc3c21`, the maximum recommended daily dose (mmol/kg-bw/day) under setting [6] was 0.000645.

`O=C(O)C1CCc2cc(C3CCCCC3)c(Cl)cc21` (stereo unspecified): the maximum recommended daily dose (mmol/kg-bw/day) (TherapeuticCategory: anti inflammatory, antipyretic) was 0.00269. In the case of `CCCCOc1ccc(C[N+]2(C)[C@@H]3CC[C@H]2CC(OC(=O)[C@H](CO)c2ccccc2)C3)cc1` (stereo partly specified), the maximum recommended daily dose (mmol/kg-bw/day) (TherapeuticCategory: antispasmotic, anticholinergic) is 0.000915. Consider `NS(=O)(=O)c1cc2c(cc1Cl)NC(CC1CCCC1)NS2(=O)=O` (stereo unspecified), for which, under setting [7], the maximum recommended daily dose (mmol/kg-bw/day) is 6.58e-05. With `C[C@]12CC[C@@H]3c4ccc(OC(=O)Cc5ccc(N(CCCl)CCCl)cc5)cc4CC[C@H]3[C@@H]1CC[C@@H]2OC(=O)Cc1ccc(N(CCCl)CCCl)cc1`, the maximum recommended daily dose (mmol/kg-bw/day) (TherapeuticCategory: estrogen) is 0.0211. Take `O=C(O)c1[nH]n(-c2ccc(S(=O)(=O)O)cc2)c(=O)c1N=Nc1ccc(S(=O)(=O)O)cc1`: the maximum recommended daily dose (mmol/kg-bw/day) (TherapeuticCategory: dye) is 0.014. Consider `COc1cccc2c1C(=O)c1c(O)c3c(c(O)c1C2=O)C[C@@](O)(/C(C)=N/NC(=O)c1ccccc1)C[C@@H]3O[C@H]1C[C@H](N)[C@H](O)[C@H](C)O1`, for which the maximum recommended daily dose (mmol/kg-bw/day) under setting [2] was 0.0103.

Regarding `CCOC(=O)CCCCCCCCC(C)c1ccccc1I` (stereo unspecified), the maximum recommended daily dose (mmol/kg-bw/day) under setting [6] is 0.3. `O=c1[nH]cnc2c1ncn2[C@H]1CC[C@@H](CO)O1`: the maximum recommended daily dose (mmol/kg-bw/day) (TherapeuticCategory: antiviral) was 0.0282. As to `C[C@@H]1O[C@@]2(CS1)CN1CCC2CC1`, under “TherapeuticCategory: selective agonist (tear and salivary production)”, the maximum recommended daily dose (mmol/kg-bw/day) is 0.00613. For the compound `Cc1ccc2c(-c3ccccc3)nc(=O)n(C(C)C)c2c1`, the maximum recommended daily dose (mmol/kg-bw/day) under setting [4] was 0.0719.

Consider `CC(C)NCC(O)c1ccc(NS(C)(=O)=O)cc1` (stereo unspecified), for which the maximum recommended daily dose (mmol/kg-bw/day) (TherapeuticCategory: antianginal, antiarrhythmic, antihypertensive) was 0.0196. As to `CC12C=CC(C(=O)O[C@H]3CC[C@H]4[C@@H]5CCC6=CC(=O)CC[C@@H]6[C@H]5CC[C@]34C)(CC1)CC2`, where the note is “TherapeuticCategory: anabolic”, the maximum recommended daily dose (mmol/kg-bw/day) was 0.00788. Turning to `O=C(CCCN1CCC(O)(c2ccc(Br)cc2)CC1)c1ccc(F)cc1`, the maximum recommended daily dose (mmol/kg-bw/day) (TherapeuticCategory: antipsychotic) is 0.00198. With `CC(N)Cc1ccccc1` (stereo unspecified), the maximum recommended daily dose (mmol/kg-bw/day) (TherapeuticCategory: CNS stimulant, anorexic) is 0.0074. Turning to `CC(=O)OCC(=O)[C@@]1(O)CC[C@H]2[C@@H]3CCC4=CC(=O)CC[C@]4(C)[C@@]3(F)[C@@H](O)C[C@@]21C`, the maximum recommended daily dose (mmol/kg-bw/day) (TherapeuticCategory: mineralcorticoid) was 3.95e-06. As to `COc1ccccc1OCCNCC(O)COc1cccc2[nH]c3ccccc3c12` (stereo unspecified), where the note is “TherapeuticCategory: antihypertensive, antianginal”, the maximum recommended daily dose (mmol/kg-bw/day) is 0.00103. `O=C1CN(/N=C/c2ccc([N+](=O)[O-])o2)C(=O)N1`: under setting [5], the maximum recommended daily dose (mmol/kg-bw/day) is 0.028. For `CC[C@H](C)[C@H]1O[C@]2(CC[C@@H]1C)C[C@@H]1C[C@@H](C/C=C(\C)[C@@H](O[C@H]3C[C@H](OC)[C@@H](O[C@H]4C[C@H](OC)[C@@H](O)[C@H](C)O4)[C@H](C)O3)[C@@H](C)/C=C/C=C3\CO[C@@H]4[C@H](O)C(C)=C[C@@H](C(=O)O1)[C@]34O)O2`, where the note is “TherapeuticCategory: anthelmintic”, the maximum recommended daily dose (mmol/kg-bw/day) is 0.000171.

For the compound `Nc1nc(N)c2nc(-c3ccccc3)c(N)nc2n1`, the maximum recommended daily dose (mmol/kg-bw/day) (TherapeuticCategory: diuretic) was 0.0131. Regarding `C[C@](O)(CS(=O)(=O)c1ccc(F)cc1)C(=O)Nc1ccc(C#N)c(C(F)(F)F)c1`, under “TherapeuticCategory: antiandrogen, antineoplastic”, the maximum recommended daily dose (mmol/kg-bw/day) was 0.00194. `CN/C(=C\[N+](=O)[O-])NCCSCc1csc(CN(C)C)n1`: the maximum recommended daily dose (mmol/kg-bw/day) (TherapeuticCategory: antiulcerative) was 0.0151. Take `CN(C)CCCN1c2ccccc2CCc2ccc(Cl)cc21`: the maximum recommended daily dose (mmol/kg-bw/day) under setting [3] was 0.0132. Regarding `CO/N=C(/C(=O)N[C@@H]1C(=O)N2C(C(=O)O)=C(COC(C)=O)CS[C@H]12)c1csc(N)n1`, under setting [5], the maximum recommended daily dose (mmol/kg-bw/day) was 0.439.

Turning to `CC(C)N=c1cc2n(-c3ccc(Cl)cc3)c3ccccc3nc-2cc1Nc1ccc(Cl)cc1`, the maximum recommended daily dose (mmol/kg-bw/day) under setting [5] is 0.00703. For `CN(C)CCOC(c1ccccc1)c1ccc(Br)cc1` (stereo unspecified), the maximum recommended daily dose (mmol/kg-bw/day) under setting [8] is 0.00748. In the case of `CC(=O)N=c1sc(S(N)(=O)=O)nn1C`, the maximum recommended daily dose (mmol/kg-bw/day) (TherapeuticCategory: diuretic) was 0.0212. With `N[C@@H](C(=O)N[C@@H]1C(=O)N2C(C(=O)O)=C(CSc3cn[nH]n3)CS[C@H]12)c1ccc(O)cc1`, the maximum recommended daily dose (mmol/kg-bw/day) under setting [5] is 0.0361. For `C[C@]12CC[C@@H]3c4ccc(OC(=O)c5ccccc5)cc4CC[C@H]3[C@@H]1CC[C@@H]2O`, the maximum recommended daily dose (mmol/kg-bw/day) (TherapeuticCategory: estrogen) was 0.00133.

On to `CC(I)C1OCC(CO)O1` (stereo unspecified), for which the maximum recommended daily dose (mmol/kg-bw/day) (TherapeuticCategory: expectorant) is 0.0155.

`CC(C)=CCC1C(=O)N(c2ccccc2)N(c2ccccc2)C1=O`: the maximum recommended daily dose (mmol/kg-bw/day) under setting [4] is 0.039. As to `CO[C@H](C(=O)[C@@H](O)[C@@H](C)O)C1Cc2cc3cc(O[C@H]4C[C@@H](O[C@H]5C[C@@H](O)[C@H](O)[C@@H](C)O5)[C@@H](O)[C@@H](C)O4)c(C)c(O)c3c(O)c2C(=O)[C@H]1O[C@H]1C[C@@H](O[C@H]2C[C@@H](O[C@H]3C[C@](C)(O)[C@H](O)[C@@H](C)O3)[C@H](O)[C@@H](C)O2)[C@H](O)[C@@H](C)O1` (stereo partly specified), the maximum recommended daily dose (mmol/kg-bw/day) under setting [2] was 2.76e-05. With `CCC(C)n1ncn(-c2ccc(N3CCN(c4ccc(OC[C@H]5CO[C@](Cn6cncn6)(c6ccc(Cl)cc6Cl)O5)cc4)CC3)cc2)c1=O` (stereo partly specified), the maximum recommended daily dose (mmol/kg-bw/day) (TherapeuticCategory: antifungal) is 0.0142. As for `CC1=NS(=O)(=O)c2cc(Cl)ccc2N1`, the maximum recommended daily dose (mmol/kg-bw/day) under setting [7] is 0.0347. Consider `CCCCNC(=O)NS(=O)(=O)c1ccc(N)cc1`, for which the maximum recommended daily dose (mmol/kg-bw/day) under setting [1] is 0.0615.

As for `C#CCN(C)Cc1ccccc1`, under setting [7], the maximum recommended daily dose (mmol/kg-bw/day) is 0.0209. In the case of `C[N+](C)(C)CCOC(N)=O`, under “TherapeuticCategory: cholinergic, miotic”, the maximum recommended daily dose (mmol/kg-bw/day) was 0.000365. On to `C[C@H](CCC(=O)O)[C@H]1CC[C@H]2[C@@H]3C(=O)C[C@@H]4CC(=O)CC[C@]4(C)[C@H]3CC(=O)[C@]12C`, for which the maximum recommended daily dose (mmol/kg-bw/day) (TherapeuticCategory: choleretic) was 0.0932.

`C#C[C@]1(O)CC[C@H]2[C@@H]3[C@H](C)CC4=C(CCC(=O)C4)[C@H]3CC[C@@]21C`: the maximum recommended daily dose (mmol/kg-bw/day) (TherapeuticCategory: treatment of menopausal syndrome) is 0.000133.

Regarding `Nc1ccn([C@@H]2O[C@H](CO)[C@@H](O)C2O)c(=O)n1` (stereo partly specified), for the setting “TherapeuticCategory: antineoplastic, antiviral”, the maximum recommended daily dose (mmol/kg-bw/day) is 0.0111. For `CC(CN1c2ccccc2Sc2ccccc21)N(C)C` (stereo unspecified), the maximum recommended daily dose (mmol/kg-bw/day) under setting [8] is 0.00587. On to `C[C@H]1O[C@@H](O[C@H]2[C@@H](O)C[C@H](O[C@H]3[C@@H](O)C[C@H](O[C@H]4CC[C@@]5(C)[C@H](CC[C@@H]6[C@@H]5CC[C@]5(C)[C@@H](C7=CC(=O)OC7)CC[C@]65O)C4)O[C@@H]3C)O[C@@H]2C)C[C@H](O)[C@@H]1O`, for which, where the note is “TherapeuticCategory: cardiotonic”, the maximum recommended daily dose (mmol/kg-bw/day) is 2.61e-08.

`O=C1CC2(CCCC2)CC(=O)N1CCCCN1CCN(c2ncccn2)CC1`: under “TherapeuticCategory: anxiolytic”, the maximum recommended daily dose (mmol/kg-bw/day) was 0.00259. As for `C=C1CC[C@H](O)C/C1=C/C=C1\CCC[C@]2(C)[C@@H]([C@H](C)CCCC(C)(C)O)CC[C@@H]12`, the maximum recommended daily dose (mmol/kg-bw/day) (TherapeuticCategory: calcium regulator) is 8.31e-06. On to `CCCC(C)C1(CC)C(=O)NC(=S)NC1=O` (stereo unspecified), for which, for the setting “TherapeuticCategory: short acting anesthetic”, the maximum recommended daily dose (mmol/kg-bw/day) was 0.0172. Consider `CN1C(=O)CCS(=O)(=O)C1c1ccc(Cl)cc1` (stereo unspecified), for which, where the note is “TherapeuticCategory: anxiolytic, skeletal muscle relaxant”, the maximum recommended daily dose (mmol/kg-bw/day) is 0.0244. Regarding `CC(C)(C)NCC(O)c1cc(O)cc(O)c1` (stereo unspecified), where the note is “TherapeuticCategory: bronchodilator, tocolytic”, the maximum recommended daily dose (mmol/kg-bw/day) is 0.00111. Consider `OCCN1CCN(CCCN2c3ccccc3C=Cc3ccccc32)CC1`, for which the maximum recommended daily dose (mmol/kg-bw/day) (TherapeuticCategory: antidepressant, antipsychotic) is 0.0138. Consider `CCn1nc(C)c2c1C(c1ccccc1)=NCC(=O)N2`, for which, where the note is “TherapeuticCategory: antianxiolytic”, the maximum recommended daily dose (mmol/kg-bw/day) is 0.00496.

On to `Nc1ccc(S(=O)(=O)c2ccc(N)cc2)cc1`, for which, for the setting “TherapeuticCategory: antibacterial, dermatitis herpetiformis suppressant”, the maximum recommended daily dose (mmol/kg-bw/day) was 0.0201.
